Source: patent US20240180932A1, “S[…] COMPOUNDS IN THE MANAGEMENT OF AGEING AND RELATED DISORDERS” (SOCIETE DES PRODUITS NESTLE S.A., priority 2021, published 2024)

How the values were obtained:
WT C. elegans = test: Thermotolerance of C. elegans after a heat-shock of 37 C for 4 hours (survival, microfluidic Infinity System); type: in vivo; settings: 48 hrs treatment
Protocol: FIG. 1. Compound 1 improves the thermotolerance of C. elegans, after a 37 C heat-shock. Day 1 adults were treated with 4 different concentrations of Compound 1 for 48 hrs at 20 C. Control is the no-drug-treated population. All compound solutions were made in NGM with 0.2% v/v DMSO, and the bacterial food source (20 mg/mL E. coli OP50). After 48 hrs of Compound 1 treatment, animals were exposed to 37 C for 4 hours and allowed to recover for 15 mins following which death scores were determined using the microfluidic Infinity System. One-way ANOVA test was used to compare the response from different doses. Multiple comparison test was conducted for pairwise comparison to identify the dosages which provide thermotolerance benefit.
It has been reported that exposing C. elegans to high temperatures increases the molecular stress and reduces animal lifespan. […] Importantly, this has been used to screen and evaluate the effectiveness of anti-ageing compounds. We monitored the survival of C. elegans after a thermal stress to determine whether Compound 1 could improve the ageing of these animals and at what concentrations this may occur. […] To achieve this, worms were maintained at their normal temperature (20 C) and then treated for 48-hour incubation with Compound 1 starting on adult day 1, followed by 4-hour heat challenge at 37 C, followed by 15 mins recovery and then death was recorded.

wild-type C. elegans = test: Lifespan of wild-type C. elegans (microfluidic Infinity System); type: in vivo; parameters: Mean lifespan / Maximum lifespan: unit not given here
Protocol: (§1) FIG. 2. 10 μM Compound 1 extends the mean and maximum lifespan of C. elegans. 60-70 synchronized day 1 adult animals were loaded in each Infinity chip and treated with 0.5 μM or 10 μM of Compound 1, throughout life, and with fresh doses of OP50 bacteria (20 mg/ml) at 20 C, each day. Note that the control is the no drug treated population (0.2% v/v DMSO liquid NGM). […] Each day, at the same time, death scores were determined and three independent trials were conducted, with two technical replicates per trial.
To determine whether Compound 1 can extend lifespan, C. elegans were treated with 0.5 μM or 10 μM Compound 1 from day 1 of adulthood. The microfluidic Infinity System was used to assess the lifespan of Compound 1-treated and non-treated control worms. 60-70 synchronized day 1 adult animals were loaded in each Infinity chip and treated with 0.5 μM or 10 μM of Compound 1, lifelong, with daily fresh doses of 20 mg/mL of OP50 bacteria at 20 C. Control is the no-drug-treated population, maintained in 0.2% v/v DMSO liquid NGM. […] Each day, at the same time death scores were determined using the Infinity Code. Three independent trials with two technical replicates per trial were conducted.

[1] = tested on: AMPKα2 knockout C. elegans (aak-2); test: Lifespan of AMPKα2 knockout C. elegans (aak-2); type: in vivo; parameters: Mean lifespan / Maximum lifespan: unit not given here
Protocol: as §1, with “3. […]” for “2. 10 μM Compound 1 extends the mean and maximum lifespan of C. elegans.”, “adult aak-2” for “adult”
We tested the ability of Compound 1 to extend lifespan in C elegans which have the AMP-activated protein kinase (AMPK) α2 subunit isoform deletion. This mutant strain (aak-2) is commonly used in lifespan studies to look at the dependence on activation of AMPK for mediating the lifespan and other effects of various compounds.

C. elegans = test: Mobility of C. elegans (highly active, moderately active, inactive cohorts); type: in vivo; settings: for Effect on percentage of highly active animals: Days 5, 8, 12, 15
Protocol: FIG. 4. […] To measure locomotory health related parameters the same video recordings that were captured for live/dead scoring were analyzed. The movements of the individual animals were tracked and animals were grouped into cohorts of different activity. This was achieved by determining how much of the animal body moved in a boundary box that encompasses it, in a duration of 30 seconds.
FIG. 5. […] The movements of the individual animals were tracked and animals were grouped into cohorts of different activity. This was achieved by determining how much of the animal body moved in a boundary box that encompasses it, in a duration of 30 seconds.
FIG. 6. […] The movements of the individual animals were tracked and animals were grouped into cohorts of different activity. This was achieved by determining how much of the animal body moved in a boundary box that encompasses it, in a duration of 30 seconds.
It is possible to measure the mobility of C. elegans and monitor this throughout the lifespan of the worms. As with many species, C. elegans display an age-related decline in mobility. […] Therefore, we tested whether Compound 1 could improve the mobility of C. elegans throughout their lifespan. To measure locomotory health related parameters the same video recordings that were captured for live/dead scoring were analyzed using the Infinity Code. The movements of the individual animals were tracked and animals were grouped into cohorts of different activity. The cohort analysis involved determining how much of the animal body moved in the boundary box that encompasses it, in a duration of 30 seconds.

Zebrafish larvae = test: Autophagy induction in Zebrafish larvae (LC3-ZsGreen reporter, LC3 punctae); type: in vivo; settings: 0.25, 0.5, 1 and 2.5 μM
Protocol: FIG. 7. Compound 1 increases autophagy in Zebrafish larvae. An autophagy reporter zebrafish line was generated by stable expression of the LC3 protein fused to ZsGreen under the control of a skeletal muscle specific promoter. Larvae from outcrossed transgenic zebrafish were raised at 28 C under standard laboratory conditions and have been treated at 48 h post-fertilization in 96 well plates with varying concentrations of Compound 1 at different concentrations as indicated in the figure. After 16 hours of treatment larvae were anesthetized with 0.016% tricaine and imaged with ImageXpress confocal system at 20× magnification (Molecular Devices). Z stack images were captured for each larva and maximal projection images were produced. Ammonium chloride (final concentration 100 mM) was added for an additional 4 h to block lysosomal degradation. Images were acquired again as before. In order to quantify autophagic flux, number of LC3 punctae have been calculated in presence and in absence of ammonium chloride with MetaXpress software (Molecular Devices) and normalized by zebrafish area.

[2] = Solubility in water-based solutions; type: physicochemical
[3] = aak-2, 0.5 μM, Pooled Trials 1 to 3
[4] = aak-2, 10 μM, Pooled Trials 1 to 3

SMILES: C=C(C)[C@@H]1CCC(C)=C[C@H]1c1c(O)cc(CCCCC)c(C(=O)O)c1O [Compound 1, Cannabidiolic acid]
- Survival after heat shock (WT C. elegans; 0.5 μM): small improvement in survival
- Survival after heat shock (WT C. elegans; concentrations above 0.5 μM): almost a complete prevention of C. elegans death
- % lifespan extension (wild-type C. elegans; 0.5 μM, Pooled Trials 1 to 3): 1.3%
- Maximum lifespan (wild-type C. elegans; 0.5 μM, Pooled Trials 1 to 3): 26
- Mean lifespan (wild-type C. elegans; 0.5 μM, Pooled Trials 1 to 3): 15.3 ± 5.4
- % lifespan extension (wild-type C. elegans; 0.5 μM, Trial 1): 4.4%
- Maximum lifespan (wild-type C. elegans; 0.5 μM, Trial 1): 25
- Mean lifespan (wild-type C. elegans; 0.5 μM, Trial 1): 16.6 ± 5.8
- % lifespan extension (wild-type C. elegans; 0.5 μM, Trial 2): 0%
- Maximum lifespan (wild-type C. elegans; 0.5 μM, Trial 2): 26
- Mean lifespan (wild-type C. elegans; 0.5 μM, Trial 2): 15.2 ± 5.7
- % lifespan extension (wild-type C. elegans; 0.5 μM, Trial 3): 0%
- Maximum lifespan (wild-type C. elegans; 0.5 μM, Trial 3): 26
- Mean lifespan (wild-type C. elegans; 0.5 μM, Trial 3): 15.0 ± 5.4
- Effect on mean and maximum lifespan (wild-type C. elegans; 10 μM): significantly extended mean and maximum lifespan
- maximum lifespan extension (wild-type C. elegans; 10 μM): 2 days
- mean lifespan extension (wild-type C. elegans; 10 μM): around 11%
- % lifespan extension (wild-type C. elegans; 10 μM, Pooled Trials 1 to 3): 11.3%
- Maximum lifespan (wild-type C. elegans; 10 μM, Pooled Trials 1 to 3): 27
- Mean lifespan (wild-type C. elegans; 10 μM, Pooled Trials 1 to 3): 16.8 ± 5.6
- % lifespan extension (wild-type C. elegans; 10 μM, Trial 1): 10%
- Maximum lifespan (wild-type C. elegans; 10 μM, Trial 1): 27
- Mean lifespan (wild-type C. elegans; 10 μM, Trial 1): 17.5 ± 5.8
- % lifespan extension (wild-type C. elegans; 10 μM, Trial 2): 11.8%
- Maximum lifespan (wild-type C. elegans; 10 μM, Trial 2): 27
- Mean lifespan (wild-type C. elegans; 10 μM, Trial 2): 17.1 ± 5.9
- % lifespan extension (wild-type C. elegans; 10 μM, Trial 3): 25%
- Maximum lifespan (wild-type C. elegans; 10 μM, Trial 3): 26
- Mean lifespan (wild-type C. elegans; 10 μM, Trial 3): 18.8 ± 6.0
- ability to extend lifespan in aak-2 worms ([1]; aak-2, 0.5 μM or 10 μM): completely lost
- % lifespan extension [1, 3]: −1.2%
- Maximum lifespan [1, 3]: 26
- Mean lifespan [1, 3]: 15.9 ± 4.2
- % lifespan extension ([1]; aak-2, 0.5 μM, Trial 1): 0%
- Maximum lifespan ([1]; aak-2, 0.5 μM, Trial 1): 25
- Mean lifespan ([1]; aak-2, 0.5 μM, Trial 1): 16.0 ± 4.2
- % lifespan extension ([1]; aak-2, 0.5 μM, Trial 2): −4.7%
- Maximum lifespan ([1]; aak-2, 0.5 μM, Trial 2): 26
- Mean lifespan ([1]; aak-2, 0.5 μM, Trial 2): 16.1 ± 4.0
- % lifespan extension ([1]; aak-2, 0.5 μM, Trial 3): −3.7%
- Maximum lifespan ([1]; aak-2, 0.5 μM, Trial 3): 25
- Mean lifespan ([1]; aak-2, 0.5 μM, Trial 3): 15.6 ± 4.4
- % lifespan extension [1, 4]: 0%
- Maximum lifespan [1, 4]: 26
- Mean lifespan [1, 4]: 16.1 ± 4.2
- % lifespan extension ([1]; aak-2, 10 μM, Trial 1): −7.5%
- Maximum lifespan ([1]; aak-2, 10 μM, Trial 1): 23
- Mean lifespan ([1]; aak-2, 10 μM, Trial 1): 14.9 ± 3.8
- % lifespan extension ([1]; aak-2, 10 μM, Trial 2): −4.1%
- Maximum lifespan ([1]; aak-2, 10 μM, Trial 2): 26
- Mean lifespan ([1]; aak-2, 10 μM, Trial 2): 16.2 ± 4.7
- % lifespan extension ([1]; aak-2, 10 μM, Trial 3): 3.8%
- Maximum lifespan ([1]; aak-2, 10 μM, Trial 3): 24
- Mean lifespan ([1]; aak-2, 10 μM, Trial 3): 16.8 ± 3.5
- Effect on percentage of highly active animals (C. elegans; 0.5 μM): increases the percentage of highly active animals at Day 8 only
- Effect on moderately active worms (C. elegans; 0.5 μM, days 14 to 20): increases the number of moderately active worms
- Effect on proportion of inactive worms (C. elegans; 0.5 μM, days 14 to 20): decreases the proportion of inactive worms
- Effect on percentage of highly active animals (C. elegans; 10 μM): increases the percentage of highly active animals at Days 8, 12 and 15
- Effect on proportion of highly active worms (C. elegans; 10 μM, days 14 and 20): increases the proportion of highly active worms
- Effect on proportion of inactive worms (C. elegans; 10 μM, days 14 and 20): decreases the proportion of inactive worms
- Mean % of Highly Active animals (C. elegans; Day 5, 0.5 μM): 83.7%
- Mean % of Highly Active animals (C. elegans; Day 5, 10 μM): 89.3%
- Mean % of Highly Active animals (C. elegans; Day 8, 0.5 μM): 75.7%
- Mean % of Highly Active animals (C. elegans; Day 8, 10 μM): 78.1%
- Mean % of Highly Active animals (C. elegans; Day 12, 0.5 μM): 45.2%
- Mean % of Highly Active animals (C. elegans; Day 12, 10 μM): 49.7%
- Mean % of Highly Active animals (C. elegans; Day 15, 0.5 μM): 18.3%
- Mean % of Highly Active animals (C. elegans; Day 15, 10 μM): 23.7%
- Autophagy (LC3) (Zebrafish larvae; 16 hours, without NH4Cl): dose-dependent increase in autophagy
- Autophagy (LC3) (Zebrafish larvae; in the presence of NH4Cl): dose-dependent increase in autophagy
- Solubility [2]: low solubility in water-based solutions
